Assay results reported in patent publication US20020065279A1, “Arylsulfonic acid salts of pyrimidine-based antiviral” (priority 2000, published 2002).
Where a name gives a salt, the structure may show the parent alone. Read-outs that look alike come from different tables or passages of the source.

Assays:
[1] = Acid selection: salt formation of compound 1 with acids; type: physicochemical
From the text: In order to prepare suitable formulations of the compounds of formula I below, standard salt formation methods were pursued. […] These acids represent most of the pharmaceutical salts used today.

[2] = first printed pKa of the acid; cited from earlier work
[3] = pKa of the free base of compound 1
[4] = Aqueous solubility of compound 1 free base and salts; type: physicochemical
From the text: A variety of pyrimidine-based antiviral compounds have been described in co-pending U.S. Ser. No. 09/249,64 1, filed Feb. 12, 1999 and in PCT application US99/03136. The development of a pyrimidine-based antiviral agent (such as those described hereinbelow) for clinical use required the identification of a salt form with optimal physical and chemical properties. The most critical properties included crystallinity, aqueous solubility, light stability and thermal stability. As noted above, applications U.S. Ser. No. 09/249,641 and PCT US99/03136 describe pyrimidine derivatives both as free bases and as their pharmaceutically acceptable salts. Among the salts listed for this group of compounds exre hydrochloric, hydrobromic, nitric, carbonic, monohydrogencarbonic, phosphoric, monohydrogenphosphoric, dihydrogenphosphoric, sulfuric, monohydrogensulfuric, hydriodic, or phosphorous acids and the like, as well as the salts derived from organic acids like acetic, propionic, isobutyric, oxalic, maleic, malonic, benzoic, succinic, suberic, fumaric, mandelic, phthalic, benzenesulfonic, p-tolylsulfonic, citric, tartaric, miethanesulfonic, and the like. Also included are salts of amino acids such as arginate and the like, and salts of organic acids like glucuronic or galactunoric acids and the like.
The besilate and tosylate salts represent improvement over the free base in solubility as described in Table 2 below. The increase in solubility represents a significant advantage over the free base for formulations that are suitable for therapeutic administration.

[5] = Aqueous stability of salts in deionized water (HPLC, UV 254.4 nm); type: physicochemical
Protocol: The tosylate salts was evaluated at a concentration of 4.7 mg/mL and the besilate salt was evaluated at a concentration of 3.2 mg/mL. Stability was monitored via HPLC using UV detection at 254.4 nm.

[6] = Thermal stability of salts at 45° C. (HPLC purity); type: physicochemical
[7] = Light stability of salts (ambient light and window glass filtered sunlight, HPLC purity); type: physicochemical

Compound: Benzenesulfonic
- Result (salt formation with compound 1) ([1]; Solvent CH2Cl2/hexanes): Yellow crystals
- Result (salt formation with compound 1) ([1]; Solvent CH3CN): Yellow crystals
- Result (salt formation with compound 1) ([1]; Solvent CHCl3/hexanes): Yellow crystals
- Result (salt formation with compound 1) ([1]; Solvent EtOAc/MeOH): Yellow crystals
- Result (salt formation with compound 1) ([1]; Solvent EtOH): Yellow crystals
- Result (salt formation with compound 1) ([1]; Solvent EtOH/hexanes): Yellow crystals
- pKa (acid) [2]: 1.6

Compound: O=[N+]([O-])O [Nitric]
- Result (salt formation with compound 1) ([1]; Solvent EtOH): Decomposition
- pKa (acid) [2]: −1.4

Compound: O=C(O)c1cccc(O)c1 [3-Hydroxybenzoic]
- Result (salt formation with compound 1) ([1]; Solvent EtOAc): No salt formed

Compound: Cc1nc(N2CCOCC2C)nc(-n2ccnc2)c1[N+](=O)[O-] (stereo not drawn) [Compound 1, 2-(3S-3-methylmorpholino)-4-(imidazol-1-yl)-6-methyl-5-nitropyrimidine]
- pKa [3]: 4.09
- Aqueous Solubility [4]: 1.68 mg/mL

Compound: L-Tartaric
- Result (salt formation with compound 1) ([1]; Solvent Et2O): No salt formed
- Result (salt formation with compound 1) ([1]; Solvent EtOAc): No salt formed
- Result (salt formation with compound 1) ([1]; Solvent EtOH): No salt formed
- Result (salt formation with compound 1) ([1]; Solvent MeOH): No salt formed

Compound: CS(=O)(=O)O [Methanesulfonic]
- Result (salt formation with compound 1) ([1]; Solvent CH2Cl2): Decomposition
- Result (salt formation with compound 1) ([1]; Solvent Et2O): Decomposition
- Result (salt formation with compound 1) ([1]; Solvent EtOAc): Decomposition
- Result (salt formation with compound 1) ([1]; Solvent EtOAc/CH2Cl2): Decomposition
- Result (salt formation with compound 1) ([1]; Solvent EtOAc/hexanes): Decomposition

Compound: O=C(O)c1ccccc1 [Benzoic]
- Result (salt formation with compound 1) ([1]; Solvent Et2O): No salt formed
- Result (salt formation with compound 1) ([1]; Solvent EtOAc): No salt formed

Compound: Cl [Hydrochloric]
- Result (salt formation with compound 1) ([1]; Solvent CH3CN): Decomposition
- Result (salt formation with compound 1) ([1]; Solvent CHCl3): Decomposition
- Result (salt formation with compound 1) ([1]; Solvent Et2O): Decomposition
- Result (salt formation with compound 1) ([1]; Solvent EtOAc): Decomposition
- Result (salt formation with compound 1) ([1]; Solvent IPA): Decomposition
- Result (salt formation with compound 1) ([1]; Solvent MeOH): Decomposition

Compound: O=S(=O)(O)O [Sulfuric]
- Result (salt formation with compound 1) ([1]; Solvent EtOH): Decomposition

Compound: Cc1nc(N2CCOCC2C)nc(-n2ccnc2)c1[N+](=O)[O-] (stereo not drawn) [Tosylate Salt, 2-(3S-3-methylmorphoamino)-4-(imidazol-1-yl)-6-methyl-5-nitropyrimidine p-toluenesulfonate]
- purity %, HPLC (aqueous stability) ([5]; 4.7 mg/mL, 48 hours): 100%
- purity %, HPLC (aqueous stability) ([5]; 4.7 mg/mL, 147 hours): 100%
- purity %, HPLC (aqueous stability) ([5]; 4.7 mg/mL, 171 hours): 97.3%
- purity %, HPLC (aqueous stability) ([5]; 4.7 mg/mL, 201 hours): 93.1%
- purity %, HPLC (aqueous stability) ([5]; 4.7 mg/mL, 216 hours): 92.8%
- purity %, HPLC (aqueous stability) ([5]; 4.7 mg/mL, 1560 hours): 64.6%
- purity %, HPLC (thermal stability) ([6]; 8 hours): 100%
- purity %, HPLC (thermal stability) ([6]; 24 hours): 100%
- purity %, HPLC (thermal stability) ([6]; 48 hours): 100%
- purity %, HPLC (thermal stability) ([6]; 72 hours): 100%
- purity %, HPLC (thermal stability) ([6]; 170 hours): 100%
- purity %, HPLC (thermal stability) ([6]; 250 hours): 100%
- purity %, HPLC (thermal stability) ([6]; 1632 hours): 100%
- purity %, HPLC (light stability) ([7]; 24 hours): 100%
- purity %, HPLC (light stability) ([7]; 48 hours): 100%
- purity %, HPLC (light stability) ([7]; 216 hours): 97.6%
- purity %, HPLC (light stability) ([7]; 1560 hours): 86.6%
- Aqueous Solubility [4]: 36 mg/mL

Compound: O=C(O)c1ccccc1O [Salicylic]
- Result (salt formation with compound 1) ([1]; Solvent Et2O): No salt formed
- Result (salt formation with compound 1) ([1]; Solvent EtOAc): No salt formed

Compound: O=CO [Formic]
- Result (salt formation with compound 1) ([1]; Solvent EtOH): No salt formed

Compound: O=C(O)CC(O)(CC(=O)O)C(=O)O [Citric]
- Result (salt formation with compound 1) ([1]; Solvent Et2O): No salt formed
- Result (salt formation with compound 1) ([1]; Solvent EtOAc): No salt formed
- Result (salt formation with compound 1) ([1]; Solvent EtOAc/MeOH): No salt formed

Compound: Br [Hydrobromic]
- Result (salt formation with compound 1) ([1]; Solvent EtOH): Decomposition

Compound: NC(=O)CCC(=O)O [Succinamic]
- Result (salt formation with compound 1) ([1]; Solvent EtOAc): No salt formed
- Result (salt formation with compound 1) ([1]; Solvent EtOAc/MeOH): No salt formed
- pKa (acid) [2]: 4.4

Compound: O=C(O)/C=C\C(=O)O [Maleic]
- Result (salt formation with compound 1) ([1]; Solvent Et2O): No salt formed
- Result (salt formation with compound 1) ([1]; Solvent EtOAc): No salt formed

Compound: Fumaric
- Result (salt formation with compound 1) ([1]; Solvent EtOAc/MeOH): No salt formed

Compound: O=C(O)[C@@H](O)[C@H](O)C(=O)O [D-Tartaric]
- Result (salt formation with compound 1) ([1]; Solvent EtOAc): No salt formed
- Result (salt formation with compound 1) ([1]; Solvent MeOH): No salt formed

Compound: Cc1ccc(S(=O)(=O)O)cc1 [Toluenesulfonic]
- Result (salt formation with compound 1) ([1]; Solvent CHCl3/hexanes): Yellow crystals
- Result (salt formation with compound 1) ([1]; Solvent EtOAc): Yellow crystals

Compound: CC(=O)O [Acetic]
- Result (salt formation with compound 1) ([1]; Solvent Et2O): No salt formed

Compound: Cc1nc(N2CCOCC2C)nc(-n2ccnc2)c1[N+](=O)[O-] (stereo not drawn) [Besilate Salt, 2-(3S-3-methylmorpholino)-4-(imidazol-1-yl)-6-methyl-5-nitropyrimidine benzenesulfonate]
- purity %, HPLC (aqueous stability) ([5]; 3.2 mg/mL, 48 hours): 100%
- purity %, HPLC (aqueous stability) ([5]; 3.2 mg/mL, 147 hours): 100%
- purity %, HPLC (aqueous stability) ([5]; 3.2 mg/mL, 171 hours): 97.4%
- purity %, HPLC (aqueous stability) ([5]; 3.2 mg/mL, 201 hours): 91.7%
- purity %, HPLC (aqueous stability) ([5]; 3.2 mg/mL, 216 hours): 91.7%
- purity %, HPLC (aqueous stability) ([5]; 3.2 mg/mL, 1560 hours): 61.4%
- purity %, HPLC (thermal stability) ([6]; 8 hours): 100%
- purity %, HPLC (thermal stability) ([6]; 24 hours): 100%
- purity %, HPLC (thermal stability) ([6]; 48 hours): 100%
- purity %, HPLC (thermal stability) ([6]; 72 hours): 100%
- purity %, HPLC (thermal stability) ([6]; 170 hours): 100%
- purity %, HPLC (thermal stability) ([6]; 250 hours): 100%
- purity %, HPLC (thermal stability) ([6]; 1632 hours): 100%
- purity %, HPLC (light stability) ([7]; 24 hours): 100%
- purity %, HPLC (light stability) ([7]; 48 hours): 100%
- purity %, HPLC (light stability) ([7]; 216 hours): 97.3%
- purity %, HPLC (light stability) ([7]; 1560 hours): 93.1%
- Aqueous Solubility ([4]; listed as Resilate Salt): 44 mg/mL
